Reference: patent publication US10265321B2, “Uses of salt-inducible kinase (SIK) inhibitors” (Dana-Farber Cancer Institute, Inc., priority 2014, dated 2019)
Like-named read-outs stand apart in the source and are kept apart here.

How the values were obtained:
[1] = tested on: IL-10 production by zymosan-stimulated BMDCs; assay: IL-10 up-regulation in zymosan-stimulated BMDCs (AlphaLISA/ELISA); type: cell-based, mouse
Experimental: (§1) Bone marrow-derived DCs were differentiated from C57BL/6 bone marrow in the presence of GM-CSF-conditioned media. CD11c^+ CX3CR1^hi myeloid cells and CD11c^+ CX3CR1^− DCs were isolated from the small intestine lamina propria of Cx3cr1^eGFP/+ mice (12). Detection of cell-surface Thy1.1 expression on BMDCs from 10BiT reporter mice was conducted as described previously (24). Cell viability was estimated by change in total cellular ATP levels using CellTiterGlo assays (Promega). Preparation of recombinant SIK proteins and IC50 measurements were conducted as described previously (21). Total RNA was extracted using a NucleoSpin 96 RNA isolation kit (Macherey-Nagel) followed by cDNA synthesis and multiplex RT-PCR using a microfluidic dynamic array (Fluidigm). The concentrations of TNF-α, IL-6, IL-10, IL-12p40, IL-1β and RANTES in culture supernatants were detected using a FlexSet Cytometric bead array (BD Biosciences). Alternatively, IL-10 secretion was quantified using ELISA (BD Biosciences) or AlphaLISA (PerkinElmer) assays. NO production was estimated based on nitrate content in culture medium using the Greiss reagent.
C57BL/6 mice were euthanized and bone marrow harvested from femurs and tibias as described previously (Graham D B, et al. (2007) An ITAM-signaling pathway controls cross-presentation of particulate but not soluble antigens in dendritic cells. The Journal of experimental medicine 204(12):2889-2897). BMDCs were differentiated DMEM supplemented with 2 mM GlutaMAX, 10% (vol/vol) FBS, penicillin, streptomycin and 2% mouse GM-CSF conditioned media derived from TOPO cells. Cultures were differentiated for 7 days and routinely analyzed for >90% CD11c (APC anti-CD11c clone HL3; BD Biosciences) positivity by flow cytometry before use in experiments. Lentiviral transduction of bone marrow cultures was conducted by addition of 293T culture supernatants containing lentiviral particles encoding the CREB dependent luciferase reporter construct or CRTC3 targeting or control shRNAs one day post-isolation. Stable integration of lentiviral shRNA constructs was selected by addition of puromycin (3 μg/mL) on day 4 post-transduction. After 2 days, stably transduced BMDCs were released from selection and used in subsequent assays. Unless otherwise indicated, cells were treated for 2 days with PGE2 (5 μM) or HG-9-91-01 (0.5 μM) or an equivalent concentration of DMSO (≤0.5%) and then stimulated for 18 hr with LPS (100 ng/mL), R848 (10 μg/mL) or zymosan (4 μg/mL).
BMDCs were seeded into black 384-well plates (Corning) at 20,000 cells/well in 40 μL complete DMEM using a Multidrop COMBI (Thermal Scientific) followed by incubation at 37° C. for 2 hr to allow for plate adherence. SIK inhibitors (100 nL/well) were pin-transferred from concentrated DMSO stocks using CyBi-Well Vario (CyBio) into duplicate plates. For each treatment plate, 32 out of 384 wells were pinned with DMSO as negative control and 32 out of 384 wells were pinned with PGE2 (5 μM final concentration). Two days after SIK inhibitor treatment, BMDCs were stimulated with zymosan (4 μg/mL final concentration) dispersed in culture medium (20 μL/well) using a Multidrop COMBI. After 18 hr, 5 μL of resulting supernatant was transferred from the culture plate to white 384-well AlphaLISA plates (Perkin Elmer) using a CyBi-Well Vario. IL-10 abundance in the supernatants was determined using an AlphaLISA assay (PerkinElmer) according to the manufacture's protocol and signal intensity measured using an EnVision multimode plate reader. SIK inhibitor activity was expressed as a % of the differences between the mean abundance of IL-10 in PGE2 versus DMSO wells on a per plate basis. Cell viability assays were conducted on the same tissue culture plates as the IL-10 assay. First media was removed and replaced by solution of 50% (vol/vol) CellTiter-Glo (Promega) in PBS. […]

[2] = tested on: BMDCs; assay: Cell viability of BMDCs (CellTiter-Glo, cellular ATP); type: cell-based, mouse; settings: Mus musculus, BMDC; zymosan-stimulated BMDCs; read-out: Viability loss EC50
Experimental: as §1
BMDCs were seeded into black 384-well plates (Corning) at 20,000 cells/well in 40 μL complete DMEM using a Multidrop COMBI (Thermal Scientific) followed by incubation at 37° C. for 2 hr to allow for plate adherence. SIK inhibitors (100 nL/well) were pin-transferred from concentrated DMSO stocks using CyBi-Well Vario (CyBio) into duplicate plates. For each treatment plate, 32 out of 384 wells were pinned with DMSO as negative control and 32 out of 384 wells were pinned with PGE2 (5 μM final concentration). Two days after SIK inhibitor treatment, BMDCs were stimulated with zymosan (4 μg/mL final concentration) dispersed in culture medium (20 μL/well) using a Multidrop COMBI. After 18 hr, 5 μL of resulting supernatant was transferred from the culture plate to white 384-well AlphaLISA plates (Perkin Elmer) using a CyBi-Well Vario. IL-10 abundance in the supernatants was determined using an AlphaLISA assay (PerkinElmer) according to the manufacture's protocol and signal intensity measured using an EnVision multimode plate reader. SIK inhibitor activity was expressed as a % of the differences between the mean abundance of IL-10 in PGE2 versus DMSO wells on a per plate basis. Cell viability assays were conducted on the same tissue culture plates as the IL-10 assay. First media was removed and replaced by solution of 50% (vol/vol) CellTiter-Glo (Promega) in PBS. Luminescence was read using an Envision multimode plate reader, and signal intensity calculated relative to DMSO control wells on a per plate basis.

[3] = Mus musculus, BMDC, zymosan-stimulated BMDCs, read-out: IL-10 induction EC50

Row | Compound | EC50 [1, 3] [nM] | EC50 [2] [nM] | concentrations that suppressed/reduced zymosan-induced IL-10 production ([1]; BMDCs) | EC50 ([1]; BMDCs pre-treated 2 days, zymosan 18 hr, ELISA, read-out: EC50 of potentiation of zymosan-induced IL-10 production) [nM]
1 | CCN1CCN(c2ccc(Nc3cc(-n4ccnc4Nc4c(C)cccc4C)ncn3)cc2)CC1 [II-1, 6-(2-((2,6-dimethylphenyl)amino)-1H-imidazol-1-yl)-N-(4-(4-ethylpiperazin-1-yl)phenyl)pyrimidin-4-amine] | 1460 | 19.5 |  | 
2 | Cc1cccc(C)c1NC(=O)N1C/C=C\COc2cccc(c2)Nc2cc1ncn2 [I-1] | 5620 | 10000 |  | 
3 | COc1ccc(N(C(=O)Nc2c(C)cccc2C)c2cc(Nc3ccc(N4CCN(C)CC4)cc3)ncn2)c(OC)c1 [HG-9-91-01] |  |  | greater than 1 μM | ~200
